Patent EP0510620A1, “Indophenol substituted oligomaltosides as substrates for alpha-amylase” (BOEHRINGER MANNHEIM GMBH, priority 1991, dated 1992)
Marks after values point to notes of the source that are not given here.

Target: T1, Human-Pankreas-α-Amylase (HPA) (Homo sapiens, UniProt P04746)
T1 sequence (P04746 16-511): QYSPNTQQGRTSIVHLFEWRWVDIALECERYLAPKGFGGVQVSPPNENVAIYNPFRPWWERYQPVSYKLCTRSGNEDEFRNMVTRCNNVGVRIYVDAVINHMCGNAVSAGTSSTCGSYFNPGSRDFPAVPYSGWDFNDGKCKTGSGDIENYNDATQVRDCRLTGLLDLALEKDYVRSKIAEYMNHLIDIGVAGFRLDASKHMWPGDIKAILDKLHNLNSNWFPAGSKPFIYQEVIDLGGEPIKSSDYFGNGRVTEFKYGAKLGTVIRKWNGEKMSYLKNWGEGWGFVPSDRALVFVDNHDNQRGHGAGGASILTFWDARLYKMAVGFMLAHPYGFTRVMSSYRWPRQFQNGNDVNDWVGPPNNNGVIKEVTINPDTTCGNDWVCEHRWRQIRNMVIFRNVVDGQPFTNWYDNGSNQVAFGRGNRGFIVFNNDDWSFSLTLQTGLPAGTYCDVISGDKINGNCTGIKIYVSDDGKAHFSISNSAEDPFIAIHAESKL
Assay: direct α-amylase determination with synthetic substrates, without auxiliary enzymes (absorbance change per minute)
Type: biochemical
Details: for 400 mmol/l KSCN HPA relativer Wert [ΔE/min]: relative value (Beispiel 1 = 1); for 400 mMol/l KSCN HPA [ΔE/min]: activator 400 mMol/l KSCN, read at the wavelength given per substrate (645 or 578 nm)
Excerpt: Es wurde mit den in der folgenden Tabelle und in Fig. 1 aufgeführten Substraten, die Amylaseaktivität von Human-Pankreas-α-Amylase (HPA) und Human-Speichel-α-Amylase (HSA) untersucht. Die folgenden Reagenzien wurden verwendet:
Substrat (wie in der Tabelle angegeben) 49,3 mMol/l
Reagenz 1 enthält gegebenenfalls noch Aktivator, wie in Tabelle angegeben, sowie - als Hemmstoffe für die Speichel-α-Amylase- von den Zellinien NCACC 84122003 (MAK I) und NCACC 84111301 (MAK II) produzierte Antikörper. Zur Durchführung der Bestimmung wird 1,00 ml Reagenz 1 mit 0,02 ml der Probe gemischt und auf 37°C temperiert. Anschließend wird 0,10 ml Reagenz 2 zugegeben, gemischt und nach 1,2 und 3 Minuten die Extinktion bei der jeweiligen Meßwellenlänge (s. Tabelle) abgelesen. Es wird der Mittelwert der Extinktionsdifferenz/Minute gebildet.
Die Endkonzentrationen im Testansatz betragen:
Als Probe wird Humanpankreas-Amylase (HPA) verwendet. Die Messung erfolgt bei 37°C bei der jeweils angegebenen Meßwellenlänge. Die Ergebnisse sind der Tabelle zu entnehmen. Tabelle
Verwendung der gemäß Beispiel 4 und Beispiel 5 hergestellten Substanzen als Substrate zur direkten α-Amylase-Bestimmung.
Es wird analog zu Beispiel 2 vorgegangen.

[1] = measured at pH 8,0, 595 or 573 nm
[2] = MES buffer pH 6,0, 37°C, substrate 4,44 mmol/l

SMILES | 400 mmol/l KSCN HPA relativer Wert [ΔE/min] [1] | 400 mMol/l KSCN HPA [ΔE/min] [2] | further results
CC1=CC(=Nc2ccc(O[C@H]3O[C@H](CO)[C@@H](O[C@H]4O[C@H](CO)[C@@H](O[C@H]5O[C@H](CO)[C@@H](O)[C@H](O)[C@H]5O)[C@H](O)[C@H]4O)[C@H](O)[C@H]3O)c(Cl)c2)C=CC1=O [Beispiel 4, 2'-Chlor-2-methyl-indophenyl-α-maltotriosid] | 0,35* ΔE/min |  | 
O=C1C(Cl)=CC(=Nc2ccc(O[C@H]3O[C@H](CO)[C@@H](O[C@H]4O[C@H](CO)[C@@H](O[C@H]5O[C@H](CO)[C@@H](O)[C@H](O)[C@H]5O)[C@H](O)[C@H]4O)[C@H](O)[C@H]3O)c(Cl)c2)C=C1Cl [Beispiel 1, 2',2,6-Trichlor-indophenyl-α-maltotriosid] |  | 0,063 ΔE/min | Spaltung durch α-Amylase als direktes Substrat (in words, in the absence of auxiliary enzymes): hervorragend durch α-Amylase in Abwesenheit von Hilfsenzymen spaltbar; 400 mmol/l KSCN HPA relativer Wert [ΔE/min] (analogous to Beispiel 2 (pH 6,0, 37°C), 645 nm): 1 ΔE/min
CC1=CC(=Nc2ccc(O[C@H]3O[C@H](CO)[C@@H](O[C@H]4O[C@H](CO)[C@@H](O[C@H]5O[C@H](CO)[C@@H](O)[C@H](O)[C@H]5O)[C@H](O)[C@H]4O)[C@H](O)[C@H]3O)c(Cl)c2)C=C(C)C1=O [Beispiel 5, 2'-Chlor-2,6-dimethyl-indophenyl-α-maltotriosid] | 0,27* ΔE/min |  | 
O=C1C(Cl)=CC(=Nc2ccc(O[C@H]3O[C@H](CO)[C@@H](O[C@H]4O[C@H](CO)[C@@H](O[C@H]5O[C@H](CO)[C@@H](O)[C@H](O)[C@H]5O)[C@H](O)[C@H]4O)[C@H](O)[C@H]3O)cc2)C=C1Cl [2,6-Dichlor-indophenylα-maltotriosid, reference compound] |  | 0 ΔE/min | 
CC1=CC(=Nc2ccc(O[C@H]3O[C@H](CO)[C@@H](O[C@H]4O[C@H](CO)[C@@H](O[C@H]5O[C@H](CO)[C@@H](O)[C@H](O)[C@H]5O)[C@H](O)[C@H]4O)[C@H](O)[C@H]3O)cc2)C=C(C)C1=O [2,6-Dimethyl-indophenylα-maltotriosid, reference compound] |  |  | HPA [ΔE/min] (with 150 mmol/l NaN₃ instead of KSCN, MES buffer pH 6,0, 37°C, substrate 4,44 mmol/l, 578 nm): 0* ΔE/min
